Measured values: patent US20020003114A1, “Partially halogenated hydantoins in papermaking applications” (Lonza Inc.;, priority 2000, published 2002)

Assays:
[1] = system: organisms native to the white water; assay: Bactericidal efficacy of slimicides in paper mill white water; format: cell-based; details: Table 8
Method: White water was obtained from a Northeastern paperboard mill. The pH of the white water was about 6.5-7.5. The consistency of the white water was typically 0.1-0.2%. The furnish pulp was approximately 50% mixed, 15% chip, 15% corrugated, and 15% newspaper. The white water contained the sizing alkyl ketene dimer (AKD). The test organisms were those native to the white water.
The slimicide was added at a concentration of from about 15 to about 20 ppm (expressed as Cl2) to the white water. The white water was then incubated for 3 hours at 37° C. The test conditions were based on ASTM E 600-91 and ASTM E 1839-96. Bacterial counts were performed using tryptone glucose extract agar by known pour plate techniques. DIFCO D/E Neutralizing Broth was used as the first serial dilution tube for biocide neutralization.
The bactericidal efficacy of each slimicide in Table 6 was determined according to the procedure described in Example 2, except the incubation time was 30 minutes instead of 3 hours and the initial concentration of slimicide was about 20 ppm (expressed as Cl2).
The bactericidal efficacy rate of each slimicide was determined by dividing the observed log reduction in the bacterial count by the 30 minute contact time. The bactericidal efficacy rate at 2 ppm of slimicide (expressed as C2) was extrapolated from the results for 20 ppm of slimicide (expressed as Cl2) by assuming a first order behavior. […]
The bactericidal efficacy and bacterial efficacy rate of each slimicide in Table 8 below was determined according to the procedure described in Example 5.
The bactericidal efficacy of each slimicide in Table 10 was determined according to the procedure described in Example 2, except the initial concentration of slimicide was about 10 ppm (expressed as Cl2).
The microbiocidal efficacy rate of each slimicide was determined by dividing the observed log reduction in the bacterial count by the 180 minute contact time. The efficacy rate at 2 ppm of slimicide (expressed as Cl2) was extrapolated from the results for 10 ppm of slimicide (expressed as Cl2) by assuming a first order behavior. […]

[2] = Oxidant (halogen) loss rate with performance additive A-PAM; format: physicochemical
Method: (§1) 125 mL solutions containing 2.0 ppm (expressed total halogen as Cl2) of Cl0.9-5,5-dimethyl hydantoin, Dantochlor®, sodium hypochlorite, Dantobrom®, or sodium hypobromite and a performance additive described in Table 4 were prepared by mixing the appropriate amounts of the ingredients in tap water at a temperature of about 37° C. and a pH of about 8.
(§2) The degeneration of the performance additives tested was determined by measuring the residual oxidant (halogen) concentrations of the solutions over time as follows. The tests were performed in a water bath maintained at 37° C. and an orbital shaker in order to keep the performance additives dispersed in the solutions. Aliquots were taken at regular intervals over a 30 minute period and measured for residual slimicide concentrations using the standard diethyl-p-phenylene diamine (DPD) methodology described in Palin, A. T., Chemistry and Control of Modem Chlorination, La Motte Chemical (1973). The oxidant (halogen) loss rates were determined from first order linear regression plots of the residual oxidant (halogen) concentrations over time.
(§3) The ratio of bactericidal efficacy to oxidant loss rate was calculated for the slimicides and performance additives in Table 7 based on the results in Tables 5 and 6 above. […]

[3] = Oxidant (halogen) loss rate with performance additive PAE; format: physicochemical
Method: as §1, §2, §3

[4] = Oxidant (halogen) loss rate with performance additive C-Starch; format: physicochemical
Method: as §1, §2, §3

[5] = Oxidant (halogen) loss rate with performance additive AKD; format: physicochemical
Method: as §1, §2, §3

[6] = Oxidant (halogen) loss rate with performance additive C-PAM; format: physicochemical
Method: as §1, §2, §3

[7] = Table 9, extrapolated rate at 2 ppm (Table 8) divided by oxidant loss rate (Table 5)

Which “Bactericidal Efficacy Rate (log cfu/ml reduction per minute)” value ([1]; 20 ppm slimicide, log reduction divided by 30 minute contact time) does the source give for [Na+].[O-]Br [NaOBr, Sodium hypobromite] here?
The value was 0.002 log cfu/ml reduction per minute.

And the “Extrapolated Bactericidal Efficacy Rate (at 2 ppm of Slimicide) (log cfu/ml reduction per minute)” value ([1]; extrapolated from 20 ppm to 2 ppm assuming first order (one-tenth))?
Its value is 0.0002 log cfu/ml reduction per minute.

And the “Bactericidal Efficacy (log cfu/ml reduction in 30 minutes)” value ([1]; procedure of Example 5, slimicide about 20 ppm (as Cl2), white water, 30 minutes)?
Its value is 0.07 log cfu/ml reduction.

And the “Ratio of Bactericidal Efficacy Rate to Oxidant Loss Rate, A-PAM” value [2, 7]?
Its value is 0.007 log cfu/ml reduction per ppm.

And the “Oxidant (Halogen) Loss Rate, A-PAM” value ([2]; slimicide 2.0 ppm (as Cl2), A-PAM 50 ppm active, tap water, 37° C., pH about 8, 30 minutes)?
Its value is 0.029 ppm/min.

And the “Ratio of Bactericidal Efficacy Rate to Oxidant Loss Rate, PAE” value [3, 7]?
Its value is 0.002 log cfu/ml reduction per ppm.

What about the “Oxidant (Halogen) Loss Rate, PAE” value ([3]; slimicide 2.0 ppm (as Cl2), PAE 100 ppm active, tap water, 37° C., pH about 8, 30 minutes) of the same compound?
The value was 0.103 ppm/min.

And the “Ratio of Bactericidal Efficacy Rate to Oxidant Loss Rate, C-Starch” value [4, 7]?
The value was 0.02 log cfu/ml reduction per ppm.

What about the “Oxidant (Halogen) Loss Rate, C-Starch” value ([4]; slimicide 2.0 ppm (as Cl2), C-Starch 100 ppm active, tap water, 37° C., pH about 8, 30 minutes) of the same compound?
Its value is 0.010 ppm/min.

What about the “Ratio of Bactericidal Efficacy Rate to Oxidant Loss Rate, AKD” value [5, 7] of the same compound?
The value was 0.07 log cfu/ml reduction per ppm.

And the “Oxidant (Halogen) Loss Rate, AKD” value ([5]; slimicide 2.0 ppm (as Cl2), AKD 10 ppm active, tap water, 37° C., pH about 8, 30 minutes)?
The value was 0.003 ppm/min.

And the “Ratio of Bactericidal Efficacy Rate to Oxidant Loss Rate, C-PAM” value [6, 7]?
Its value is 0.008 log cfu/ml reduction per ppm.

And the “Oxidant (Halogen) Loss Rate, C-PAM” value ([6]; slimicide 2.0 ppm (as Cl2), C-PAM 4 ppm active, tap water, 37° C., pH about 8, 30 minutes)?
The value was 0.025 ppm/min.
